In patent US10501413B2, “Inhibitors of the Notch transcriptional activation complex and methods for use of the same” (UNIVERSITY OF MIAMI, priority 2015, dated 2019):

Tests used:
[1] = target: T1, Notch transcriptional activation complex (CSL, Notch1, MAML1 on DNA) (Homo sapiens, UniProt P46531+Q06330); experiment: Notch complex assembly assay (ALPHASCREEN); assay type: biochemical
T1 construct: the intracellular domain of Notch (“NICD”); made in house; host or cells: SF21 insect cells (baculovirus)
T1 sequence (P46531 1754-2555 limits assumed): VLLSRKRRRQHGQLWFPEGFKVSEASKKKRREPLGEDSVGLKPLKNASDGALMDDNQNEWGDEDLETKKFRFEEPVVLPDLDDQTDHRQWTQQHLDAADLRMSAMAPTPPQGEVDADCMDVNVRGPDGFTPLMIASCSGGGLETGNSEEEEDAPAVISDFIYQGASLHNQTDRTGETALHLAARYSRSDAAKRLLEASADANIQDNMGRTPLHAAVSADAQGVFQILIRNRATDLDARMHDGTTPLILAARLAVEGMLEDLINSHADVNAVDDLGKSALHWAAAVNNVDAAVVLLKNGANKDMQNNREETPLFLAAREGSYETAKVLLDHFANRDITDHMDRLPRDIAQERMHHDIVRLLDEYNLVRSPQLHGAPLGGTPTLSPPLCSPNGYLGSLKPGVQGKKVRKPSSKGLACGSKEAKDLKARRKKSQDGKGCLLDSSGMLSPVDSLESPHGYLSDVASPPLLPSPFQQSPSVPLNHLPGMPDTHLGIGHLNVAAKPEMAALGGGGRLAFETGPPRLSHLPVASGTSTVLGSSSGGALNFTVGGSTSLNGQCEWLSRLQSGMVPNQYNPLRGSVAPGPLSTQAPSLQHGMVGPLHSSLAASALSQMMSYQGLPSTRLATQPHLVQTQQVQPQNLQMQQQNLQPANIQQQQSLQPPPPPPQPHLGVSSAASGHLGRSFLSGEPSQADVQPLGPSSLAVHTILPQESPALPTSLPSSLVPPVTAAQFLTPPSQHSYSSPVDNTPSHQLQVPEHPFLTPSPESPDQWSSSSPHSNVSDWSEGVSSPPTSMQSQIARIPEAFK
T1 sequence (Q06330 whole entry, the tested form may be a part): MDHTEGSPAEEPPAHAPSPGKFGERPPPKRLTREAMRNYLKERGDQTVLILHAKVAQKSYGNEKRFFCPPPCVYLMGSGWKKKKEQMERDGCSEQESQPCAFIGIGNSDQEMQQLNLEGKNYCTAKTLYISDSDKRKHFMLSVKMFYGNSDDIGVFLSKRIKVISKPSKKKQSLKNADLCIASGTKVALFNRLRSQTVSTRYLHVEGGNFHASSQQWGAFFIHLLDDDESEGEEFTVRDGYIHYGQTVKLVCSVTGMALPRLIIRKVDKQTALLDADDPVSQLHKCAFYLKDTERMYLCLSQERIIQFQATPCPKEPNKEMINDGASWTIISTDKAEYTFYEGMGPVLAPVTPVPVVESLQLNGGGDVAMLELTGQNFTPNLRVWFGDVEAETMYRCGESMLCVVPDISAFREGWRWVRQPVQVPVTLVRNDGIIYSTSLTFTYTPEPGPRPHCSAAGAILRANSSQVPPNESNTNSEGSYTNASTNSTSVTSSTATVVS
Text: An in vitro assay was developed to monitor the assembly of the Notch transcriptional complex (“NTC”) on DNA. The NTC, which includes the Notch, Mastermind (“MAML1”), and CSL proteins, binds to a specific DNA sequence in a CSL-dependent manner. For the assay, baculovirus produced CSL, Notch, and MAML1 were mixed together with a biotinylated DNA oligomer containing the CSL target sequence. Assembly of the NTC on DNA was then monitored with the proximity-based ALPHASCREEN (Perkin Elmer) using streptavidin and protein A beads (FIGS. 1A and 1B). A signal results when MAML1 is recruited to CSL bound DNA.
All recombinant proteins were expressed using baculovirus expression vectors in SF21 cells and purified. Unless otherwise stated, all assays contained 125 fmol of double stranded oligonucleotide, CSL, Notch1 and MAML1 proteins. Reactions were carried out in Tris-buffered saline with 0.1% Tween (“TBS-T”) buffer containing 0.2% bovine serum albumin (“BSA”) and 100 ug/mL salmon sperm DNA. Briefly, the Notch complex was assembled on a biotinylated double stranded (“DS”) oligonucleotide harboring one CSL binding site (5′-[…]-3′). Complex assembly was quantitated using ALPHASCREEN technology (Perkin Elmer). Proteins in the complexes were detected using specific antibodies to either MAML1 (Cell signaling, D3K7B), Notch1 (Abcam, 52627) or CSL (anti-His, Abcam 18184). Streptavidin conjugated acceptor beads (Perkin Elmer, 6760002) were used to bind the DS oligonucleotide, and Protein-A conjugated donor beads (Perkin Elmer, 6760137) were used to detect antibody-coated proteins. For screening compounds, Notch transcriptional activation complex (“NTC”) components were added to wells that already contained the inhibitor to be assayed and allowed to incubate for 30 minutes. The ALPHASCREEN plate (Perkin Elmer, 6008350) was then read on an Envision Plate reader (Perkin Elmer) as specified by the manufacturer.
Determination of Equilibrium Dissociation Constants (KD) and Half Maximal Inhibitory Concentrations (IC50)

NICD1 = target: T2, NICD1 (Homo sapiens, UniProt P46531); experiment: Surface plasmon resonance binding to immobilized NICD; settings: SPR, equilibrium response fitted to 1:1 binding model
T2 construct: the intracellular domain of Notch (“NICD”)
T2 sequence (P46531 1754-2555 limits assumed): as the sequence (P46531 1754-2555 limits assumed) above
Description: (§1) The inhibitors described herein were subjected to surface plasmon resonance (“SPR”) to determine their binding constants to the NICD and CSL components of the NTC. In particular, the target protein (NICD1) was immobilized on the dextran surface of the SPR sensor chip. Through a microflow system, a solution with the inhibitor was injected over the immobilized protein layer. The inhibitor bound to the immobilized protein, which led to an increase in SPR signal, indicating association of the ligand to the target protein. After 45 seconds, buffer solution was injected on the microfluidics that dissociated the bound complex between the ligand and the inhibitor. As the inhibitor dissociated from the ligand, a decrease in SPR signal was observed. The equilibrium dissociation constant KD was determined by plotting the equilibrium response (Req) as a function of the concentration of the ligand, and fitting the data to a 1:1 binding model. The results are listed in […].

CSL = CSL (Homo sapiens, UniProt Q06330); experiment: Surface plasmon resonance binding to CSL; settings: SPR, equilibrium response fitted to 1:1 binding model
CSL, sequence (Q06330 whole entry): as the sequence (Q06330 whole entry, the tested form may be a part) above
Description: as §1

[2] = system: MAML1 and Notch1 occupancy on HES1 promoter in OE33 and 786-0 cells; experiment: Chromatin immunoprecipitation (ChIP) on the HES1 locus; assay type: cell-based, human; settings: 24 hours
Description: (§2) The effect of inhibitor treatment on the assembly of the NTC in cells was investigated.
Cells (8×10^6 OE33 cells or 10×10^6 786-0 cells) were plated onto a 15 cm tissue culture dish a day prior to treatment. Cells were then treated for 24 hours with (N—[N-(3,5-difluorophenacetyl)-L-alanyl]-S-phenylglycine t-butyl ester (“DAPT”, 5 μM), Inhibitor No. 1-134-83 (25 μM), or DMSO vehicle. Following treatment, cells were cross-linked for 10 minutes with 1% formaldehyde. The reaction was then stopped by adding […] glycine. Cells were collected in SDS lysis buffer (1% SDS, 10 mM EDTA, 50 mM Tris-HCl pH 8.0) and sonicated to yield chromatin fragments of approximately 300 to 800 bp (8 minutes at high level for OE33 cells; 5 minutes at medium level for 786-0 cells in BIORUPTOR UCD-200 sonicator). Lysates were divided into equal parts and immunoprecipitated with either α-Notch1 (A301-894A, Bethyl Laboratories) or α-MAML1 (12166s, Cell Signaling Technology) antibody. Protein:DNA immunoprecipitates were then reverse cross-linked at 65° C. in 200 mM NaCl for 4 hours, followed by incubation with RNase A and proteinase K. DNA was then purified using a PCR purification kit (28104,
Qiagen). Immunoprecipitated DNA was then detected by SYBR green qPCR using HES1 specific oligonucleotide primers (forward: 5′CGTGTCTCCTCCTCCCATT3′; reverse: 5′GGGGGATTCCGCTGTTAT3′).

[3] = system: Notch target gene transcription; experiment: RT-qPCR of Notch target genes in cancer cell lines; assay type: cell-based, human
Description: (§3) The effect of inhibitor treatment on Notch-target gene transcription also was investigated (FIGS. 2C and 2D). […] As proof of specificity, transcription of the housekeeping gene, HPRT, was unaltered in treated cells. To test the effects of Notch inhibition on proliferation, a colony formation assay was performed.
(§4) To extend the analysis of tumor cell growth inhibition, several commonly used cancer cell lines were selected to test for sensitivity to Inhibitor No. 1-134-83 (FIGS. 3A and 3B). […] In this analysis, sensitivity to DAPT is taken to indicate specific inhibition of Notch activity. […] Cells that are refractory to DAPT were equally resistant to Inhibitor No. 1-134-83.
RT-PCR analysis was performed using TaqMan probes according to manufacturer's instructions. In particular, 80 ng of RNA equivalent was used per reaction. Gene expression was normalized to the TATA-binding protein (“TBP”) gene. As a control, hypoxanthine phosphoribosyltransferase 1 (“HPRT”) gene expression was also monitored.

[4] = system: NICD in OE33 and 786-0 cells; experiment: Western analysis of NICD levels; assay type: cell-based, human; settings: OE33 and 786-0 cell lysates
Description: as §2
Protein analysis was carried out using conventional SDS-PAGE and transfer techniques. Blots were probed with the indicated antibody (“Ab”), using standard conditions, and detected using enhanced chemiluminescence (“ECL”). The following Ab were used: anti-Notch1 (ab52627, abcam), anti-Notch1^val1744 (4147S, Cell Signaling Technology) and anti-GAPDH (ab9483, Abcam).

[5] = system: cancer cell lines (OE33, 786-0 and panel); experiment: Colony formation assay; assay type: cell-based, human; settings: 7 days
Description: as §3, §4
Cells were plated into a 6 well plate at a density of 2000 cells/cm^2. Inhibitor treatment commenced 24 hours post seeding, and the media containing inhibitor was changed every 48 hours thereafter. After 168 hours, cells were fixed with ice cold methanol for 10 minutes, stained for 1 hour with crystal violet, de-stained with water, and allowed to dry.

[6] = system: esophageal adenocarcinoma PDX tumors; experiment: Esophageal adenocarcinoma patient-derived xenograft (PDX); assay type: in vivo, mouse; settings: NSG mice, two PDX models, daily IP, 1-134-83 15 mg/kg, DAPT 20 mg/kg
Description: The effect of the inhibitors of the disclosure on the growth of an established tumor also was investigated using two independent esophageal adenocarcinoma patient-derived xenograft (“PDX”) models. Tumors were established in NSG mice to the size of 250 mm^3 prior to the initiation of treatment. Mice were dosed daily via intraperitoneal (“IP”) injection with either Inhibitor No. 1-134-83 (15 mg/kg) or DAPT (20 mg/kg), and compared to DMSO vehicle control. […] Following 24 days of treatment, tumors were harvested and Notch-target gene transcription was evaluated. […] (FIG. 4) Six-week-old NOD-SCID gamma (“NSG”) mice were purchased from Jackson Laboratories and CD-1 Nude mice were purchased from Charles River Laboratories. For the cell line based xenografts assay, 5×10^6 OE19 cells in 200 μl serum-free culture medium were injected subcutaneously per mouse. The mice in the treatment group were injected with 15 mg/kg of Inhibitor No. 1-134-83 daily, and the mice in the control group were injected with the same volume of vehicle (DMSO). Subcutaneous tumor growth was measured once every 4 days using calipers along with body weight. The experiment was discontinued on day 28. PDX cancer models were established, as described in Zhang et al, Establishment of Patient-Derived Xenograft (PDX) Models of Human Breast Cancer, Current Protocols in Mouse Biology, 3:21-29 (2013), in NSG mice. Briefly, 10 mm^3 pieces of primary EAC29 PDX tumor were transplanted subcutaneously into the flanks of NSG mice using a 13G telescopic needle. When the tumors reached 200 mm^3, the mice were split into two uniform groups for treatment. Compound 1-134-83 (15 mg/kg) and vehicle were administered daily by inraperitoneal (“IP”) injection for 24 days. Tumor growth was monitored every 4 days and tumor volume was measured by the formula: Volume=(S×S×L)/2, where S and L are the short and long dimensions. The xenograft tumors were harvested, weighed and samples were subjected to histological examination and by qPCR.

SMILES | IC50 [1] | Kd (NICD1) | Kd (CSL) | other results
COc1cc(/C=C2\SC(=S)NC2=O)ccc1OCC(=O)O [1-134-02] | 0.5 µM | 2.9 ± 0.6 µM | 3.6 ± 0.9 µM | 
C=CCc1cc(/C=C2\SC(=S)NC2=O)cc(OC)c1OCC(=O)O [1-134] | 6 µM | 17 ± 5 µM | 15 ± 3 µM | 
C[C@H](NC(=O)Cc1cc(F)cc(F)c1)C(=O)N[C@H](C(=O)OC(C)(C)C)c1ccccc1 [DAPT, N—[N-(3,5-difluorophenacetyl)-L-alanyl]-S-phenylglycine t-butyl ester, reference compound] |  |  |  | occupancy of MAML1 on the HES1 promoter [2]: decreased; occupancy of NOTCH1 on the HES1 promoter [2]: decreased; Notch target gene transcription ([3]; OE33 and 786-0 cells, qPCR): significant decrease; transcription of control gene HPRT ([3]; OE33 and 786-0 cells, qPCR): not affected; Notch target gene transcription ([3]; insensitive cancer cell lines of the panel, 48 hrs): do not show a statistically significant reduction; Notch target gene transcription ([3]; sensitive cancer cell lines of the panel, 48 hrs, DAPT 10, 1-134-83 15 and 25 μM): significantly reduced; levels of NICD in cells [4]: decrease in the NICD pool; colony formation ([5]; 786-0 and OE33 cells): inhibited the cell colony forming ability of cells; colony formation ([5]; sensitive (Notch dependent) cell lines): decrease in colony formation; growth of established tumor [6]: stunted growth to a similar level achieved with DAPT treatment

Continued, in another order:

IC50 [1] | Kd (NICD1) | Kd (CSL) | SMILES | other results
0.07 µM | 25 ± 4 µM | 3.4 ± 0.7 µM | O=C(O)COc1ccccc1/C=C1\SC(=S)NC1=O [NADi-090] | 
0.5 µM | 5.7 ± 0.9 µM | 6.4 ± 0.7 µM | COc1cccc(/C=C2\SC(=S)N(CC(=O)N(C)C)C2=O)c1O [NADi-203, (Z)-2-(5-(2-Hydroxy-3-methoxybenzylidene)-4-oxo-2-thioxothiazolidin-3-yl)-N,N-dimethylacetamide] | 
0.5 µM | 3.7 ± 0.8 µM | 13 ± 2 µM | CN(C)C(=O)CN1C(=O)/C(=C/c2cc(F)ccc2O)SC1=S [NADi-239, (Z)-2-(5-(5-Fluoro-2-hydroxybenzylidene)-4-oxo-2-thioxothiazolidin-3-yl)-N,N-dimethylacetamide] | 
